Data: patent publication US5716993A, “Anthranilic acid derivatives” (Eisai Co., Ltd., priority 1993, dated 1998)
pIC50: −log10 of the molar value.

Biological target: T1, cGMP-PDE prepared from porcine aorta (Sus scrofa, UniProt A0A287B475)
T1 construct: The enzyme activity of CGMP-PDE prepared from porcine aorta was determined; from tissue; host or cells: porcine aorta, 100,000×g supernatant, DEAE-Toyopearl 650S fractions
Assay: Enzyme inhibitory activity using cGMP-PDE prepared from porcine aorta
Assay type: biochemical
Settings: CaM-independent cGMP-PDE fractions from porcine aorta; 1 μM cGMP substrate, 1 mM EGTA, DMSO 4% or below
Procedure: Enzyme Inhibitory activity using cGMP-PDE prepared from porcine aorta
The enzyme activity of CGMP-PDE prepared from porcine aorta was determined according to the method of Thompson et al. This determination was conducted in the presence of 1 mM EGTA by the use of 1 μM cGMP as the substrate. Each compound according to the present invention was dissolved in DMSO and added to the reaction system to determine the inhibitory activity thereof. The final concentration of DMSO in the reaction system was adjusted to 4% or below.
The cGMP-PDE was prepared as follows:
Porcine aorta was cut into fine pieces, followed by the addition of 10 times by volume as much buffer A (20 mM Tris/HCl, 2 mM Mg acetate, 1 mM dithiothreitol, 5 mM EDTA, 1400TIU/1 aprotinin, 10 mg/1 leupeptin, 1 mM benzamidine, 0.2 mM PMSF, pH7.5). The obtained mixture was homogenized and centrifuged at 100,000×g for one hour. The obtained supernatant was placed on a column of DEAE-Toyopearl 650S (a product of Tosoh, Tokyo, Japan), followed by the washing of the column with buffer B (50 mM Tris/HCl, 0.1 mM EGTA, 2 mM Mg acetate, 1 mM Dithiothreitol, 0.2 mM PMSF, pH7.5). The resulting column was subjected to gradient elution with 0.05 to 0.4M sodium chloride to obtain CaM-independent cGMP-PDE fractions.

O=C(Nc1ccc(Cl)cc1C(=O)NCc1ccc2c(c1)OCO2)c1ccncc1 [Example 9, 5-Chloro-N-(3,4-methylenedioxybenzyl)-2-(isonicotinoylamino)benzamide]
pIC50: 7.54

O=C(NCc1ccc2c(c1)OCO2)c1cc(Cl)ccc1NC(=O)C1CCCCC1 [Example 19, 5-Chloro-2-[(cyclohexanecarbonyl)amino]-N-(3,4-methylenedioxybenzyl)benzamide]
pIC50: 7.78

O=C(NCc1ccc2c(c1)OCO2)c1cc(Cl)ccc1NCc1ccncc1 [Example 33, 5-Chloro-N-(3,4-methylenedioxybenzyl)-2-(4-picolyl)aminobenzamide]
pIC50: 7.69

O=C(NCc1ccc2c(c1)OCO2)c1cc(Cl)ccc1NC(=O)N1CCC(C(=O)O)CC1 [Example 38, 1-[[4-Chloro-2-[(3,4-methylenedioxybenzyl)carbamoyl]phenyl]carbamoyl]piperidine-4-carboxylic acid]
pIC50: 8.17

O=C(NCc1ccc2c(c1)OCO2)c1cc(Cl)ccc1NC(=O)[C@H]1CC[C@H](C(=O)O)CC1 [Example 39, 2-(trans-4-Carboxycyclohexanecarbonyl)amino-5-chloro-N-(3,4-methylenedioxybenzyl)benzamide]
pIC50: 8.49

O=C(O)c1ccc(C(=O)Nc2ccc(Cl)cc2C(=O)NCc2ccc3c(c2)OCO3)cc1 [Example 41, 2-(4-Carboxybenzoyl)amino-5-chloro-N-(3,4-methylenedioxybenzyl)benzamide]
pIC50: 8.85

COc1ccc(CNC(=O)c2cc(Cl)ccc2NC(=O)N2CCC(C(=O)O)CC2)cc1Cl [Example 43]
pIC50: 9.05

O=C(O)/C=C/C(=O)Nc1ccc(Cl)cc1C(=O)NCc1ccc2c(c1)OCO2 [Example 44, 2-(3-Carboxyacryoyl)amino-5-chloro-N-(3,4-methylenedioxybenzyl)benzamide]
pIC50: 7.10

O=C(NCc1ccc2c(c1)OCO2)c1cc(Br)ccc1NC(=O)[C@H]1CC[C@H](C(=O)O)CC1 [Example 45, 5-Bromo-2-(trans-4-carboxycyclohexanecarbonyl)amino-N-(3,4-methylenedioxybenzyl)benzamide]
pIC50: 9.15

O=C(NCc1ccc2c(c1)OCO2)c1cc(Cl)ccc1NC[C@H]1CC[C@H](C(=O)O)CC1 [Example 47]
pIC50: 8.28

COc1ccc(CNC(=O)c2cc(C#N)ccc2NC(=O)N2CCC(O)CC2)cc1Cl [Example 74, 1-[[2-[(3-Chloro-4-methoxybenzyl)carbamoyl]-4-cyanophenyl]carbamoyl]-4-hydroxypiperidine]
pIC50: 8.62

COc1ccc(CNC(=O)c2cc(C#N)ccc2NC(=O)c2ccncc2)cc1Cl [Example 80, N-(3-Chloro-4-methoxybenzyl)-5-cyano-2-(isonicotinoylamino)benzamide]
pIC50: 7.92

COc1ccc(CNC(=O)c2cc(Br)ccc2NC(=O)c2ccncc2)cc1Cl [Example 81]
pIC50: 7.84

COc1ccc(CNC(=O)c2cc(C#N)c(OC)cc2NC(=O)c2ccncc2)cc1Cl [Example 83, N-(3-Chloro-4-methoxybenzyl)-5-cyano-2-(isonicotinoylamino)-4-methoxybenzamide]
pIC50: 7.90

O=C(Nc1ccc(Br)cc1C(=O)NCc1ccc2c(c1)OCO2)c1ccncc1 [Example 85, 5-Bromo-2-(isonicotinoylamino)-N-(3,4-methylenedioxybenzyl)benzamide]
pIC50: 7.66

COc1ccc(CNC(=O)c2cc(C#N)ccc2NC(=O)[C@H]2CC[C@H](O)CC2)cc1Cl [Example 109, N-(3-Chloro-4-methoxybenzyl)-5-cyano-2-[(trans-4-hydroxycyclohexanecarbonyl)amino]benzamide]
pIC50: 8.36

COc1ccc(CNC(=O)c2cc(C#N)ccc2NC(=O)[C@H]2CC[C@H](C(=O)O)CC2)cc1Cl [Example 110, 2-[(trans-4-Carboxycyclohexanecarbonyl)amino]-N-(3-chloro-4-methoxybenzyl)-5-cyanobenzamide]
pIC50: 9.15

COc1ccc(CNC(=O)c2cc(Br)ccc2NC(=O)N2CCC(C(=O)O)CC2)cc1Cl [Example 111, 1-[[4-Bromo-2-[(3-chloro-4-methoxybenzyl)carbamoyl]phenyl]carbamoyl]piperidine-4-carboxylic acid]
pIC50: 8.70

COc1ccc(CNC(=O)c2cc(Cl)ccc2NC(=O)[C@H]2CC[C@H](C(=O)O)CC2)cc1Cl [Example 112, 2-[(trans-4-Carboxycyclohexanecarbonyl)amino]-5-chloro-N-(3-chloro-4-methoxybenzyl)benzamide]
pIC50: 8.28

COc1ccc(CNC(=O)c2cc(Br)ccc2NC(=O)[C@H]2CC[C@H](C(=O)O)CC2)cc1Cl [Example 113, 5-Bromo-2-[(trans-4-carboxycyclohexanecarbonyl)amino]-N-(3-chloro-4-methoxybenzyl)benzamide]
pIC50: 9.40

COc1ccc(CNC(=O)c2cc([N+](=O)[O-])ccc2NC(=O)[C@H]2CC[C@H](C(=O)O)CC2)cc1Cl [Example 114, 2-[(trans-4-Carboxycyclohexanecarbonyl)amino]-N-(3-chloro-4-methoxybenzyl)-5-nitrobenzamide]
pIC50: 8.77

COc1ccc(CNC(=O)c2cc(Br)c(OC)cc2NC(=O)[C@H]2CC[C@H](C(=O)O)CC2)cc1Cl [Example 115, 5-Bromo-2-[(trans-4-carboxycyclohexanecarbonyl)amino]-N-(8-chloro-4-methoxybenzyl)-4-methoxybenzamide]
pIC50: 7.61

COc1ccc(CNC(=O)c2cc(C#N)c(OC)cc2NC(=O)[C@H]2CC[C@H](C(=O)O)CC2)cc1Cl [Example 116]
pIC50: 8.54

COc1ccc(CNC(=O)c2cc(S(=O)(=O)N(C)C)ccc2NC(=O)[C@H]2CC[C@H](C(=O)O)CC2)cc1Cl [Example 117, 2-[(trans-4-Carboxycyclohexanecarbonyl)amino]-N-(3-chloro-4-methoxybenzyl)-5-dimethylsulfamoylbenzamide]
pIC50: 7.94

COc1ccc(CNC(=O)c2cc(Cl)ccc2NC(=O)[C@H]2CC[C@H](C(=O)O)CC2)cc1C#N [Example 120, 2-[(trans-4-Carboxycyclohexanecarbonyl)amino]-5-chloro-N-(3-cyano-4-methoxybenzyl)benzamide]
pIC50: 7.67

COc1cc(CNC(=O)c2cc(Cl)ccc2NC(=O)[C@H]2CC[C@H](C(=O)O)CC2)ccc1Cl [Example 121, 2-[(trans-4-Carboxycyclohexanecarbonyl)amino]-5-chloro-N-(4-chloro-3-methoxybenzyl)benzamide]
pIC50: 8.11

O=C(NCc1ccc2c(c1)OCO2)c1cc(Br)ccc1NC(=O)N1CCC(C(=O)O)CC1 [Example 122]
pIC50: 8.30

O=C1c2c(NC(=O)[C@H]3CC[C@H](C(=O)O)CC3)ccc(Br)c2CN1Cc1ccc2c(c1)OCO2 [Example 123, 4-Bromo-7-[(trans-4-carboxycyclohexanecarbonyl)amino]-N-(3,4-methylenedioxybenzyl)isoindoline-1-one]
pIC50: 8.21

O=C(NCc1ccc2c(c1)OCO2)c1cc(OC(F)(F)F)ccc1NC(=O)[C@H]1CC[C@H](C(=O)O)CC1 [Example 125, 2-[(trans-4-Carboxycyclohexanecarbonyl)amino]-N-(3,4-methylenedioxybenzyl)-5-trifluoromethoxybenzamide]
pIC50: 7.72

O=C(NCc1ccc2c(c1)OCO2)c1cc(-n2cccn2)ccc1NC(=O)[C@H]1CC[C@H](C(=O)O)CC1 [Example 126, 2-[(trans-4-Carboxycyclohexanecarbonyl)amino]-N-(3,4-methylenedioxybenzyl)-5-(1-pyrazolyl)benzamide]
pIC50: 8.54

COc1cc(NC(=O)[C@H]2CC[C@H](C(=O)O)CC2)c(C(=O)NCc2ccc3c(c2)OCO3)cc1Br [Example 129, 5-Bromo-2-[(trans-4-carboxycyclohexanecarbonyl)amino]-4-methoxy-N-(3,4-methylenedioxybenzyl)benzamide]
pIC50: 7.43

COc1ccc(CNC(=O)c2cc(C#N)ccc2NC(=O)[C@@H]2CCC(=O)O2)cc1Cl [Example 136, N-(3-Chloro-4-methoxybenzyl)-5-cyano-2-[((S)-5-oxo-2-tetrahydrofurancarbonyl)amino]benzamide]
pIC50: 7.74

COc1ccc(CNC(=O)c2cc(Br)c(N)cc2NC(=O)[C@H]2CC[C@H](C(=O)O)CC2)cc1Cl [Example 141, 4-Amino-5-bromo-2-[(trans-4-carboxycyclohexanecarbonyl)amino]-N-(3-chloro-4-methoxybenzyl)benzamide]
pIC50: 8.14
